Experimental data reported in patent US8546381B2, “Bridged heterocyclic compounds and methods of use” (Medivation Technologies, Inc., priority 2008, dated 2013).
Where “and” joins values, the source holds several entries; their conditions need not be identical. Equal values may be shown once.

Legend:
[1] = target: T1, human recombinant histamine H1 receptor (Homo sapiens, UniProt P35367); assay: Histamine H1 radioligand binding ([3H]Pyrilamine); details: for inhibition at 1 µM / Histamine Binding (1 μM) H1, Percentage Inhibition: compound at 1 μM, inhibition of specific [3H]Pyrilamine binding; for inhibition at 1 µM: read-out: Histamine Binding (1 μM) H1, Percentage Inhibition
T1 construct: expressed in transfected cells; host or cells: CHO cells
Description: To evaluate in radioligand binding assays the activity of compounds of the invention, human recombinant histamine H1 receptor expressed in Chinese hamster ovary (CHO) cells (De Backer, M. D. et al., Biochem. Biophys. Res. Comm. 197(3):1601, 1993) in a modified Tris-HCl buffer (50 mM Tris-HCl, pH 7.4, 2 mM MgCl2, 100 mM NaCl, 250 mM Sucrose) was used. Compounds of the invention were incubated with 1.2 nM [^3H]Pyrilamine for 180 minutes at 25° C. Non-specific binding was estimated in the presence of 1 μM pyrilamine. Receptor proteins were filtered and washed, the filters were then counted to determine [^3H]Pyrilamine specifically bound. Compounds were screened at 1 μM or lower, using 1% DMSO as vehicle. Biochemical assay results are presented as the percent inhibition of specific binding in Table 2.

[2] = target: T2, human recombinant serotonin (5-Hydroxytryptamine) 5-HT2A receptor (Homo sapiens, UniProt P28223); assay: Serotonin 5-HT2A radioligand binding ([3H]Ketanserin); details: for inhibition at 1 µM: read-out: Serotonin 5-HT2A, inhibition of ligand binding (1 μM)
T2 construct: expressed in transfected cells; host or cells: CHO-K1 cells
Description: To evaluate in radioligand binding assays the activity of compounds of the invention, human recombinant serotonin (5-Hydroxytryptamine) 5-HT2A receptor expressed in Chinese hamster ovary (CHO-K1) cells (Bonhaus, D. W. et al. Br. J. Pharmacol. 115:622, 1995; Saucier, C. and Albert, P. R., J. Neurochem. 68:1998, 1997) in a 50 mM Tris-HCl buffer, pH 7.4, was used. Compounds of the invention were incubated with 0.5 nM [^3H]Ketanserin for 60 minutes at 25° C. Non-specific binding was estimated in the presence of 1 μM Mianserin. Receptor proteins were filtered and washed, the filters were then counted to determine [^3H]Ketanserin specifically bound. Compounds were screened at 1 μM or lower, using 1% DMSO as vehicle. Biochemical assay results are presented as the percent inhibition of specific binding in Table 4.

[3] = target: T3, human recombinant serotonin (5-Hydroxytryptamine) 5-HT2C receptor (Homo sapiens, UniProt P28335); assay: Serotonin 5-HT2C radioligand binding ([3H]Mesulergine); details: for inhibition at 1 µM: read-out: Serotonin 5-HT2C, inhibition of ligand binding (1 μM)
T3 construct: expressed in transfected cells; host or cells: CHO-K1 cells
T3 sequence (P28335 33-458): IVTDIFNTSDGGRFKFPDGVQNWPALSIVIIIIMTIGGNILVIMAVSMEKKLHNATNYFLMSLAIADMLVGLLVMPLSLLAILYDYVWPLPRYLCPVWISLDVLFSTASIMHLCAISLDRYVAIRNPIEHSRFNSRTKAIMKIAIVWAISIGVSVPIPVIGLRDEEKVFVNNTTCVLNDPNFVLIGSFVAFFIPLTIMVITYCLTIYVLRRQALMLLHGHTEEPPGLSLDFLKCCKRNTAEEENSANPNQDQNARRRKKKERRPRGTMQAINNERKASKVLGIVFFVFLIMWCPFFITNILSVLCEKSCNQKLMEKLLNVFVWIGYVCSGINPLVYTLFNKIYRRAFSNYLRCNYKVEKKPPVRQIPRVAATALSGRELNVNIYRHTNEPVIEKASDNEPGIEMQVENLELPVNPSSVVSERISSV
Description: To evaluate in radioligand binding assays the activity of compounds of the invention, human recombinant serotonin (5-Hydroxytryptamine) 5-HT2C receptor expressed in Chinese hamster ovary (CHO-K1) cells (Wolf, W. A. and Schutz, J. S., J. Neurochem. 69:1449, 1997) in a modified Tris-HCl buffer (50 mM Tris-HCl, pH 7.4, 0.1% Ascorbic Acid, 10 μM Pargyline) was used. Compounds of the invention were incubated with 1 nM [^3H]Mesulergine for 60 minutes at 25° C. Non-specific binding was estimated in the presence of 1 μM Mianserin. Receptor proteins were filtered and washed, the filters were then counted to determine [^3H]Mesulergine specifically bound. Compounds were screened at 1 μM or lower, using 1% DMSO as vehicle. Biochemical assay results are presented as the percent inhibition of specific binding in Table 4.

[4] = target: T4, human recombinant serotonin (5-Hydroxytryptamine) 5-HT6 receptor (Homo sapiens, UniProt P50406); assay: Serotonin 5-HT6 radioligand binding ([3H]LSD); details: for inhibition at 1 µM: read-out: Serotonin 5-HT6, inhibition of ligand binding (1 μM)
T4 construct: expressed in transfected cells; host or cells: human HeLa cells
Description: To evaluate in radioligand binding assays the activity of compounds of the invention, human recombinant serotonin (5-Hydroxytryptamine) 5-HT6 receptor expressed in human HeLa cells (Monsma, F. J. Jr. et al., Mol. Pharmacol. 43:320, 1993) in a modified Tris-HCl buffer (50 mM Tris-HCl, pH 7.4, 150 mM NaCl, 2 mM Ascorbic Acid, 0.001% BSA) was used. Compounds of the invention were incubated with 1.5 nM [3H]Lysergic acid diethylamide (LSD) for 120 minutes at 37° C. Non-specific binding was estimated in the presence of 5 μM Serotonin (5-HT). Receptor proteins were filtered and washed, the filters were then counted to determine [3H]LSD specifically bound. Compounds were screened at 1 μM or lower, using 1% DMSO as vehicle. Biochemical assay results are presented as the percent inhibition of specific binding in Table 4.

T4 sequence (P50406 whole entry): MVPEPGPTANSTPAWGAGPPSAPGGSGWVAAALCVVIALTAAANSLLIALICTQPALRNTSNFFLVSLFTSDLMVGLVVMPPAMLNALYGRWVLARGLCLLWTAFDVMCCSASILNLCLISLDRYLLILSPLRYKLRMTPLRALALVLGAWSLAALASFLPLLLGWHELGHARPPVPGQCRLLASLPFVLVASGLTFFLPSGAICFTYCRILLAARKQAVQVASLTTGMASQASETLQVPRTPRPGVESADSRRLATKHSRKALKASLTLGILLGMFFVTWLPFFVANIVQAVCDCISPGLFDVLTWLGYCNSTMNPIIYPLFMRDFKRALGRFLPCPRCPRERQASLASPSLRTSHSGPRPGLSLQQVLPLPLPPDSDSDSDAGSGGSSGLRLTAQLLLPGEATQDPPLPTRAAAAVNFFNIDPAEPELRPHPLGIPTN
T1 sequence (P35367 whole entry): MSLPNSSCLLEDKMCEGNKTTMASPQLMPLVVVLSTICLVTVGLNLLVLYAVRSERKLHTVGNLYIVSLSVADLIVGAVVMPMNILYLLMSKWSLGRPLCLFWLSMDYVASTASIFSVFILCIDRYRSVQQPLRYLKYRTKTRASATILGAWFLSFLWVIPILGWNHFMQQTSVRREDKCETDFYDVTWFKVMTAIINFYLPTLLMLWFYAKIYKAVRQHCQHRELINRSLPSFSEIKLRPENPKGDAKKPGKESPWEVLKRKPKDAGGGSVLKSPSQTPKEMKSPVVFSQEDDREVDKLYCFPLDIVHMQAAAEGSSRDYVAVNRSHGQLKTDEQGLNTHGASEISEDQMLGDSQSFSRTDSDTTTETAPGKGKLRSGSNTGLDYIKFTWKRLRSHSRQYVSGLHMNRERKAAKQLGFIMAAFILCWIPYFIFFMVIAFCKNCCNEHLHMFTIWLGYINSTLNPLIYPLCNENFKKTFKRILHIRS
T2 sequence (P28223 whole entry): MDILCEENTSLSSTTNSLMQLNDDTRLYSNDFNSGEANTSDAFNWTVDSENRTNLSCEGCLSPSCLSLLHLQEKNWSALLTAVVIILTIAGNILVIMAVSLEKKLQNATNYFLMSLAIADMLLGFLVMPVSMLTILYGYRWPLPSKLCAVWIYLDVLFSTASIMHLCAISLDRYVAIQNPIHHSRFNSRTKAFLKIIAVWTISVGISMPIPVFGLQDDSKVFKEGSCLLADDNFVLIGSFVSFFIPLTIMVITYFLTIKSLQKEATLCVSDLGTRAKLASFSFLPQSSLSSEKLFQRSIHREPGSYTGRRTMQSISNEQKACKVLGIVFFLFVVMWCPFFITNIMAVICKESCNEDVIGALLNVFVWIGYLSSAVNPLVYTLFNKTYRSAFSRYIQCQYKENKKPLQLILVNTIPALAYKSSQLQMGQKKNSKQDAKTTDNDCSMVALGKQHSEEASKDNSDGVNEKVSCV

| Compound | inhibition at 0.01 µM ([1]; compound at 10.0 nM, read-out: Histamine Binding H1, Percentage Inhibition (10.0 nM)) [%] | inhibition at 0.1 µM ([1]; compound at 0.1 μM, read-out: Histamine Binding H1, Percentage Inhibition (0.1 μM)) [%] | inhibition at 1 µM [1] [%] | inhibition at 1 µM [2] [%] | inhibition at 1 µM [3] [%] | inhibition at 1 µM [4] [%] | Histamine Binding (1 μM) H1, Percentage Inhibition [1] [%] | Serotonin 5-HT2A, inhibition of ligand binding (1 μM) [2] | Serotonin 5-HT2C, inhibition of ligand binding (1 μM) ([3]; 1 µM) [%] | Serotonin 5-HT6, inhibition of ligand binding (1 μM) [4] |
| --- | --- | --- | --- | --- | --- | --- | --- | --- | --- | --- |
| Cc1ccc2c(c1)c1c(n2CCc2ccccc2)CC2CCC1N2C (stereo not drawn) [Compound 2] | 42 | 85 | 99 | 96 | 79 | 82 |  |  |  |  |
| CN1C2CCC1c1c(n(CCC(=O)N3CCNC(=O)C3)c3ccc(Cl)cc13)C2 (stereo not drawn) [Compound 3] |  |  | 12 | 3 | 2 | 3 |  |  |  |  |
| CN1C2CCC1c1c(n(CCC(=O)N3CCCC3)c3ccc(Cl)cc13)C2 (stereo not drawn) [Compound 5] |  |  | 32 |  | -9 | 7 |  |  |  |  |
| CC(=O)N1CCN(C(=O)CCn2c3c(c4cc(Cl)ccc42)C2CCC(C3)N2C)CC1 (stereo not drawn) [Compound 8] |  |  | 16 | 1 | -6 | -1 |  |  |  |  |
| CN1C2CCC1c1c(n(CCC(=O)N3CCNCC3)c3ccc(Cl)cc13)C2 (stereo not drawn) [Compound 9] |  |  | 6 | 15 | 5 | 2 |  |  |  |  |
| CN1C2CCC1c1c(n(CCC(=O)N3CC[S+]([O-])CC3)c3ccc(Cl)cc13)C2 (stereo not drawn) [Compound 10] |  |  | 7 | -5 | 4 | -13 |  |  |  |  |
| CN1C2CCC1c1c(n(CCC(=O)N3CCS(=O)(=O)CC3)c3ccc(Cl)cc13)C2 (stereo not drawn) [Compound 11] |  |  | 2 | -8 | 13 | -16 |  |  |  |  |
| CN1C2CCC1c1c(n(CCC(=O)N3CCSCC3)c3ccc(Cl)cc13)C2 (stereo not drawn) [Compound 12] |  |  | 29 | 10 | 26 | -1 |  |  |  |  |
| CN1C2CCC1c1c(n(CCC(=O)N3CCOCC3)c3ccc(Cl)cc13)C2 (stereo not drawn) [Compound 13] |  |  | 28 |  | 8 | 10 |  |  |  |  |
| Cc1ccc2c(c1)c1c(n2CCc2ccc(C)nc2)CC2CCC1N2C (stereo not drawn) [Compound 32] |  |  | 94 | 15 | -3 | 13 |  |  |  |  |
| CN1C2CCC1c1c(n(CCc3ccc(Cl)cc3)c3ccc(F)cc13)C2 (stereo not drawn) [Compound 33] |  |  | 86 |  | 64 | 14 |  |  |  |  |
| CN1C2CCC1c1c(n(CCc3ccc(C(F)(F)F)nc3)c3ccc(Cl)cc13)C2 (stereo not drawn) [Compound 34] |  |  | 52 |  | 27 | 20 | 55.0 | 36.0/ % and 65.0% | 28.0 | 28.0% |
| CN1C2CCC1c1c(n(CCc3ccc(F)cc3)c3ccc(F)cc13)C2 (stereo not drawn) [Compound 35] |  |  | 93 |  | 86 | 70 |  |  |  |  |
| CN1C2CCC1c1c(n(CCCc3ccc(C(F)(F)F)nc3)c3ccc(Cl)cc13)C2 (stereo not drawn) [Compound 37] |  |  | 78 | 23 | 26 | 22 |  |  |  |  |
| Cc1ccc(CCCn2c3c(c4cc(Cl)ccc42)C2CCC(C3)N2C)cn1 (stereo not drawn) [Compound 38] |  |  | 96 | 13 | 23 | 17 |  |  |  |  |
| CN1C2CCC1c1c(n(CCCc3ccc(Cl)cc3)c3ccc(Cl)cc13)C2 (stereo not drawn) [Compound 39] |  |  | 91 | 87 | 94 | 24 |  |  |  |  |
| Cc1ccc(C(O)Cn2c3c(c4cc(Cl)ccc42)C2CCC(C3)N2C)cn1 (stereo not drawn) [Compound 52] |  |  | 91 | 21 | 11 | 16 |  |  |  |  |
| Cc1ccc2c(c1)c1c(n2CC(C)(O)c2ccc(Cl)cc2)CC2CCC1N2C (stereo not drawn) [Compound 54] |  |  | 63 | 100 | 93 | 26 |  |  |  |  |
| Cc1ccc2c(c1)c1c(n2CCc2ccccc2)CC2CCCC1N2C (stereo not drawn) [Compound 56] |  |  | 86 | 31 | 36 | 30 |  |  |  |  |
| CN1C2CCC1c1c(n(CCc3ccc(F)cc3)c3ccc(Cl)cc13)C2 (stereo not drawn) [Compound 57] |  |  | 96 | 79 | 88 | 46 |  |  |  |  |
| CN1C2CCC1c1c(n(CCc3ccc(Cl)cc3)c3ccc(Cl)cc13)C2 (stereo not drawn) [Compound 58] |  |  | 98 | 79 | 84 | 25 |  |  |  |  |
| CN1C2CCC1c1c(n(CC(=O)N3CCOCC3)c3ccc(Cl)cc13)C2 (stereo not drawn) [Compound 59, 2-(2-chloro-11-methyl-5,6,7,8,9,10-Hexahydro-7,10-iminocyclohept[b]indol-5-yl)-1-morpholinoethanone] |  |  | 7 |  | 8 | 0 |  |  |  |  |
| CN1C2CCC1c1c(n(CC(=O)N3CCCC3)c3ccc(Cl)cc13)C2 (stereo not drawn) [Compound 60] |  |  | 21 |  | 15 | 9 |  |  |  |  |
| Cc1ccc(CCn2c3c(c4cc(Cl)ccc42)C2CCC(C3)N2C)cc1 (stereo not drawn) [Compound 61] |  |  | 98 |  | 86 | 41 |  |  |  |  |
| Cc1ccc2c(c1)c1c(n2CCc2ccc(F)cc2)CC2CCC1N2C (stereo not drawn) [Compound 62] |  |  | 98 |  | 87 | 71 |  |  |  |  |
| CCOC(=O)CCn1c2c(c3cc(Cl)ccc31)C1CCC(C2)N1C (stereo not drawn) [Compound 70, ethyl 3-(2-chloro-11-methyl-5,6,7,8,9,10-hexahydro-7,10-iminocyclohept[b]indol-5-yl)propanoate] |  |  | 65 | 16 | 4 | 3 |  |  |  |  |
| Cc1ccc2c(c1)c1c(n2CCc2ccc(C(F)(F)F)nc2)CC2CCC1N2C (stereo not drawn) [Compound 71] |  |  | 33 | 22 | -0.259 |  | 46.0 | 34.0% |  | 8.0/ % and 2.0% |
| CN1C2CCC1c1c(n(CCC(=O)O)c3ccc(Cl)cc13)C2 (stereo not drawn) [Compound 72] |  |  | 14 | -6 | -4 | -1 |  |  |  |  |
